tested on: D54 ERlucT glycosylation luciferase reporter, luminescence, 24 h; experiment: blockers of NLG process in reporter cells – D54 ERlucT cells, luminescence, cherry-picks, dose response (AID 624491);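 also: signal gain reflects blocked N-linked glycosylation of a luciferase reporter; actives raise luciferase signal so AC26 marks activators of the reporter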

SMILES	AC26 [nM]
COc1cccc(N2CCN(C(=O)c3[nH]c(C)c(C(C)=O)c3C)CC2)c1	1680
Oc1ccc(C2=NNC(=NCc3ccc4c(c3)OCO4)SC2)c(O)c1	4890
Cc1nn(C(C)(C)C)c(OC(=O)c2ccc3c(c2)OCO3)c1Sc1ccccc1	3070
O=C1NC(=O)N(c2ccccc2)C(=O)/C1=C\C=C\c1ccccc1	679
CCCOc1ccc2ccccc2c1/C=N/n1c(C)nnc1-n1nc(C)cc1C	503
CCOC(=O)c1[nH]c(C)c(C(=O)Nc2ccc(C)c(F)c2)c1C	5420
CCN1C(=O)CCN(C2CCCC2)c2nc(Nc3ccc(C(=O)NC4CCN(C)CC4)cc3OC)ncc21	479
Cc1cc2oc(C(=O)Nc3c(C)n(C)n(-c4ccccc4)c3=O)c(C)c2cc1Cl	781
O=C(N/N=C/c1c(-c2ccccc2)[nH]c2ccccc12)c1cccnc1	117
Clc1cccc(Cl)c1Cn1cnc2c(NCc3ccco3)ncnc21	17300
CCN(CC)CCNc1ccc(CO)c2oc3cc(Cl)ccc3c(=O)c12	2820
OCCCN=c1cc(-c2ccccc2)oc2ccc(Cl)cc12	978
COc1cccc(-c2cc3nc(-c4ccccc4)cc(=O)n3[nH]2)c1	7070
COc1ccc(CNC(=O)C/C(C)=N/NC(=O)COc2ccc(C)cc2Br)cc1	5660
CCOC(=O)C(C)Oc1cccc2c(=O)n(CC(=O)NCc3ccco3)ccc12 (stereo not drawn)	1380
CN1CCN(C(=O)/C=C/c2ccc([N+](=O)[O-])o2)CC1	3930
O=C(c1cccc(Oc2ccccc2)c1)N1CCN(c2ccccn2)CC1	2190
COc1ccccc1/C=N/NC(=O)CSc1cc(C)nc2ccccc12	2940
NS(=O)(=O)c1cc(C(=O)NCCOc2ccccc2)c(Cl)cc1Cl	5620
Cc1cccc(C)c1OCCNC(=O)C(=O)NCc1ccco1	1710
Cc1ccc(OCCNC(=O)C(=O)NCc2ccco2)cc1	6100
Cc1cc(C)cc(NC2=NC3(CCCCC3)N=C(N)N2)c1	545

SMILES	AC26 [nM]
CNc1ccc(Br)cc(C(=O)/C=C/c2ccc(Cl)cc2Cl)c1=O	8890
COc1cc(OC)cc(C(=O)N/N=C/c2ccc(OC)c(COc3ccc(F)cc3)c2)c1	2250
C[C@@]12C(=O)Nc3ccc(Br)cc3C(=O)N1[C@H]1c3ccccc3OC[C@@H]1[C@@H]2c1ccccc1	368
CN1/C(=C/C=C(/C#N)C(N)=O)C(C)(C)c2ccccc21	55.6
COc1ccccc1-c1csc(C(NC(C)=O)c2ccc(F)c(F)c2)n1 (stereo not drawn)	341
O=C1NC(=O)N(Cc2ccco2)C(=O)/C1=C/C=C/c1ccco1	953
O=C(/C=C/c1c[nH]c2ccccc12)c1cccc2ccccc12	5410
CC(O)CN=c1cc(-c2ccccc2)oc2ccc(Cl)cc12 (stereo not drawn)	1150
COc1ccc2c(c1)C(=O)N1[C@H]3c4cc(C)ccc4OC[C@@H]3[C@H](c3ccccc3)[C@]1(C)C(=O)N2	358
Cc1cc(C)nc(SC2CC(=O)N(c3ccc(C)c(C)c3)C2=O)n1 (stereo not drawn)	14300
Cc1cc(C)c2c(c1)cc(C)c1nnc(SCC(=O)Nc3cc(C)on3)n12	12000
CC1(C(=O)NCc2ccc(F)c(F)c2)Cc2c(-c3ccc4c(c3)OCO4)ccnc2O1 (stereo not drawn)	6730
COc1cccc(C2=NOC(C(=O)NCc3ccccc3)C2)c1 (stereo not drawn)	73.2
COc1ccc([C@@H]2[C@@H]3C(=O)N(C(C)(C)C)C(=O)[C@@H]3[C@]3(Cc4ccccc4)C(=O)N(c4cccc(Br)c4)C(=O)N23)cc1	1600
CCOc1ccc2cc(/C=C/C(=O)c3ccco3)c(Cl)nc2c1	3060
O=c1[nH]c(=O)n([C@H]2C[C@H](O)[C@@H](CO)O2)cc1I	5190
COc1cc(C(=O)N/N=C(\C)c2ccc3c(c2)OCO3)cc(OC)c1OC	1260
COc1ccc(S(=O)(=O)N2CCCCC2)cc1NC(=O)c1[nH]c(C)c(C(C)=O)c1C	1630
COc1cccc(-c2nn(-c3ccccc3)cc2/C=C\C(=O)c2cccs2)c1	1360
Cc1ccccc1OCC(O)CN1CCN(CCN2C(=O)c3cccc4cccc(c34)C2=O)CC1 (stereo not drawn)	13500
COc1ccccc1N1CC(O)=C(c2nc3ccccc3c(=O)[nH]2)C1=N	1320
COC(=O)/C=C1\C(=O)N(c2nc3ccccc3s2)C(=S)N1c1ccc(F)cc1	2300

SMILES	AC26 [nM]
COc1cccc(N2CCN(C(=O)c3ccc(CS(=O)c4ccc(C)cc4)o3)CC2)c1 (stereo not drawn)	110
O=c1c2c3c(sc2ncn1/N=C/c1ccc([N+](=O)[O-])o1)CCCC3	447
COc1ccc2oc(-c3ccccc3[N+](=O)[O-])cc(=O)c2c1	568
COCCCNC(=O)c1sc2ncn(CC(=O)Nc3ccc(C)c(Cl)c3)c(=O)c2c1C	1380
COc1ccc2noc3c2c1C(=O)c1ccccc1-3	441
CS(=O)(=O)c1cccc(C(=O)Nc2ccc(-c3nc4ccccc4[nH]3)cc2)c1	3070
COc1ccccc1C1CC(=O)Nc2cc3c(cc21)OCCO3 (stereo not drawn)	10500
CCN(CC)CCNc1ccc(C)c2sc3ccc(O)cc3c(=O)c12	7.74
COc1ccc2c(c1)[C@H]1[C@H](CO2)[C@H](c2ccccc2)[C@]2(C)C(=O)Nc3cc(F)ccc3C(=O)N12	19
Cc1ccc(OCCN2C(=O)C(=O)c3cc(C)ccc32)cc1	2460
Cc1cccn2c(=O)c3cc(C(=O)NCCN4CCOCC4)c(=N)n(CCc4ccccc4)c3nc12	8760
CO/N=C\CC(=O)Nc1ccc(Cl)cc1Cl	1070
COc1cc(OC)c(N2CC(C(=O)Nc3cc(Cl)ccc3N3CCOCC3)CC2=O)cc1Cl (stereo not drawn)	3310
O=C(/C=C/c1ccc([N+](=O)[O-])cc1)/C=C/c1ccco1	1140
COc1ccc(C)cc1NC(=O)CCCNC(=O)Cn1cnc2sc(C)c(C)c2c1=O	7090
CCOc1ccc(/C=C2\SC(N3CCCCC3)=NC2=O)cc1	1100
COc1cc2c(cc1OC)C(c1cccs1)N(C(=S)NC(C)C)CC2 (stereo not drawn)	252
Cc1ccc2nc(-c3ccccc3)cc(C(=O)N3CC(C)OC(C)C3)c2c1 (stereo not drawn)	2450
CC(=O)Nc1sc(NC(=O)c2ccccc2)nc1-c1cccs1	3450
CC(=O)c1cccc(Nc2cc(C)nc3c(C)cc(C)cc23)c1	4210
O=C(COc1ccccc1)Nc1cccc(-c2cn3cccnc3n2)c1	5880
COCCOC(=O)c1[nH]c2c(c1C)C(=O)CC(c1ccco1)C2 (stereo not drawn)	3540

SMILES	AC26 [nM]
COc1ccc(C(=O)N/N=C/C23CC[C@@H](O)CC2(O)CC[C@@H]2[C@@H]3CCC3(C)C(C4=CC(=O)OC4)CCC23O)cc1 (stereo partly drawn)	5710
Cn1c(=O)n(C)c2cc(C(=O)Nc3ccc4c(c3)OCO4)ccc21	1740
CCOC(=O)c1c(C)nc2c(c1-c1cc(OC)c(OC)c(OC)c1)C(=O)c1ccccc1-2	1560
CC(/C=N/NC(=O)c1cc(-c2ccccc2)nc2ccccc12)=C\c1ccco1	2040
COc1cc(C(=O)OCC(C)=O)ccc1OCc1c(C)noc1C	3270
Cc1ccc2nc(SCc3nnc(-c4ccccc4[N+](=O)[O-])o3)c(C#N)cc2c1	5790
Cc1ccccc1OCCOC(=O)c1c(-c2ccccc2)noc1C	8510
COc1cc(NC(=O)NCc2ccco2)ccc1-c1ccc(NC(=O)NCc2ccco2)cc1OC	4350
C=CCN=C(SCC(=O)c1ccc(Cl)cc1)c1c(O)n(C)c(=O)n(C)c1=O	2340
CC(=O)Nc1cccc(-c2ccnc3c2CC(C)(C(=O)Nc2cccc(C(C)=O)c2)O3)c1 (stereo not drawn)	9480
C[C@@]12C(=O)Nc3cc(Cl)ccc3C(=O)N1[C@H]1c3cc(Cl)ccc3OC[C@@H]1[C@@H]2c1ccccc1	4040
COc1ccc(NC2=C(C)C(=O)CC2)cc1	2940
O=C(NCCCN1CCOCC1)c1cc(-c2cccs2)on1	3670
C=CCN(CC=C)S(=O)(=O)c1ccc(C(=O)Nc2nc3c(s2)CCc2ccccc2-3)cc1	6790
COc1ccc(-c2cc3ccccc3oc2=O)cc1NC(=O)c1ccc([N+](=O)[O-])o1	751
CC(C)CCNC(=O)CCCOc1cc(=O)n(C)c2ccccc12	4270
COc1cc2nc(N(C)C)nc(N)c2cc1OC	3660
COc1ccc(CNC(=O)c2cccc3c(-c4cccc(C(N)=O)c4)coc23)cc1OC	663
COc1cc2c(cc1OC)C(=O)N1[C@H]3c4cc(C)ccc4OC[C@@H]3[C@H](c3ccccc3)[C@]1(C)C(=O)N2	387
CN=C(SCC(=O)c1cccc(Cl)c1)c1c(O)n(C)c(=O)n(C)c1=O	2590
O=C(c1[nH]c(C(F)(F)F)nc1-c1ccccc1)N1CCN(c2cccc(C(F)(F)F)n2)CC1	9230
Cc1[nH]c2ccccc2c1/C=N/NC(=O)c1cc(-c2ccncc2)nc2ccccc12	4040

SMILES	AC26 [nM]
COc1cc(/C=N\NC(=O)c2sc(N)nc2C)cc(OC)c1OC	3140
O=C(N/N=C/c1ccco1)c1cc(-c2ccncc2)nc2ccccc12	285
CCNCCNc1ccc([N+](=O)[O-])c2cccnc12	7750
COc1cc(C(=O)Nc2cc3c(cc2N2CCCCC2)n(C)c(=O)n3C)cc(OC)c1OC	3870
NC1(C(=O)O)CSSC1	221
COc1ccc(-c2ccc(C(c3c(C)[nH][nH]c3=O)c3c(C)[nH][nH]c3=O)o2)c([N+](=O)[O-])c1	224
COc1cccc(C(=O)Nc2sc3c(c2C#N)CCN(C(C)=O)C3)c1	9.19
CC1(C(=O)NCc2ccco2)Cc2c(-c3cccc(C(F)(F)F)c3)ccnc2O1 (stereo not drawn)	7710
Cc1cc(C)nc(/N=C(\N)Nc2ccc(OCCC(C)C)cc2)n1	776
CC(CCc1ccco1)NC(=O)CCc1nnc2ccc(NCc3ccc(Cl)cc3)nn12 (stereo not drawn)	1260
CCOc1cc(C)nc(NCc2ccccc2)n1	14300
CCN(CC)S(=O)(=O)c1ccc(-c2nnc(SCC(=O)N3CCc4ccccc43)o2)cc1	1460
Cn1c(=O)[nH]c(=O)c2c1nc(SCC(N)=O)n2Cc1cccc(Br)c1	660
CCOC(=O)N/N=C/c1ccc(N(CC)CC)cc1O	2990
O=C(Nc1ncccc1O)c1ccc(S(=O)(=O)Nc2ccccc2)cc1	2190
Cc1ccc(O)c(C(=O)C=Cc2ccccc2)c1	1210
O=C1CCCC2=C1C(c1ccco1)Nc1ccc(C(=O)c3ccccc3)cc1N2 (stereo not drawn)	16500
COc1cc(-c2nccc3cc4c(cc23)OCO4)cc(OC)c1OC	1490
CCNc1nc(NC(C)(C)C)nc(SC(C(C)=O)C(C)=O)n1	208
Brc1ccc(C2=Nn3c(nnc3-c3n[nH]c4c3CCC4)SC2)cc1	407

Reference: PubChem BioAssay AID624491 (Broad Institute, 2012)
